Assay results taken from patent US8772446B2, “Bifunctional chelating agents” (Nordion (Canada) Inc., priority 2010, dated 2014).

What was measured:
human apo-transferrin = human apo-transferrin (Homo sapiens, UniProt P02787); assay: ^67Ga complex stability: 2-h competition with excess human apo-transferrin, HPLC; details: ^67Ga complex, up to 2 h
Protocol: FIG. 13 illustrates stacked labelling traces of ^67Ga(dedpa)^+ of 2 h stability experiment against apo-transferrin (gradient: A: NaOAc buffer, pH 4.5, B: MeOH. 0-100% B linear gradient 20 min).

[1] = Serum stability studies done in vitro (^67Ga); format: in vitro ADME
[2] = Biodistribution in female ICR mice; format: in vivo
Protocol: The protocol used in the animal studies was approved by the Institutional Animal Care Committee of the University of British Columbia and was performed in accordance with the Canadian Council on Animal Care Guidelines. A total of 16 female ICR (20-30 g) mice were used for the animal study of each of the three compounds. ^67Ga(dedpa)^+, ^67Ga(66)^+, or ^67Ga(69)^+ was prepared as described above and then diluted in phosphate buffered saline to a concentration of 100 μCi/mL. Each mouse was i.v. injected with ˜10 μCi (100 μL) of the ^67Ga complex and then sacrificed by CO2 inhalation at 30 min, 1 h, 2 h, or 4 h after injection (n=4 at each time point). Blood was collected by cardiac puncture and plasma was separated from whole blood by centrifuging (2500 rpm, 15 min). Urine was collected from the bladder. Tissues collected included kidney, liver, spleen, femur, muscle, heart, lung, intestine and brain. Tissues were weighed and counted on a gamma counter and the counts were converted to % injected dose/gram (% ID/g). Tables 4-6 show the biodistibution data of ^67Ga(dedpa)^+, ^67Ga(66)^+ and ^67Ga(69)^+, respectively, in female ICR mice. FIG. 4 illustrates biodistribution over 4 h of ^67Ga(dedpa)^+ in female ICR mice, and FIG. 5 illustrates biodistribution of ^67Ga(66)^+ (upper) and ^67Ga(69)^+ (lower) in female ICR mice over 4 h; complete data for urine are shown also in separate diagrams to the right.

[3] = Solution thermodynamics: formation constants (log KML) and pM of Ga(III) complexes, potentiometric titration; format: physicochemical; details: Ga(III) complex; ligand-ligand competition with EDTA, potentiometric titration, 25 °C, 0.16 M NaCl
Protocol: A more relevant indicator of the extent to which a metal complex is formed in solution is given by pM (−log free M) which considers the influence of ligand basicity and chelate hydrolysis.
Carbonate-free solutions of the titrant, NaOH, were prepared by dilution of 50% solution (Acros Organics) with freshly boiled MQ water under a stream of purified nitrogen gas. The solution was standardized with potassium acid phthalate and the extent of carbonate accumulation was periodically checked by titration with a standard hydrochloric acid solution and determination of the corresponding Gran titration plot.^47 Gallium ion solutions were prepared by dilution of the appropriate atomic absorption (AA) standard. The exact amount of acid present in the gallium standard was determined by titration of an equimolar solution of Ga and Na2H2EDTA. The amount of acid present was determined by Gran's method.^47
Data were collected in triplicate using PC Control (Version 6.0.91, Metrohm). The titration apparatus consisted of a 10 mL water jacketed glass vessel maintained at 25.0±0.1° C. (Julabo waterbath). Prior to and during the course of the titration, a blanket of nitrogen, passed through 10% NaOH to exclude any CO2, was maintained over the sample solution. The ionic strength was maintained at 0.16 M using NaCl. Prior to each potentiometric equilibrium study, the electrode was calibrated using standard HCl solutions. Calibration data were analysed by standard computer treatment provided within the program MacCalib to obtain the calibration parameters E0 and pKw.
As the degree of formation of Ga(III) complexes at low pH (<2) was too high for the determination of stability constants by use of direct potentiometry, the ligand-ligand competition method using Na2H2EDTA was also performed.

human apo-transferrin, sequence (P02787 20-698): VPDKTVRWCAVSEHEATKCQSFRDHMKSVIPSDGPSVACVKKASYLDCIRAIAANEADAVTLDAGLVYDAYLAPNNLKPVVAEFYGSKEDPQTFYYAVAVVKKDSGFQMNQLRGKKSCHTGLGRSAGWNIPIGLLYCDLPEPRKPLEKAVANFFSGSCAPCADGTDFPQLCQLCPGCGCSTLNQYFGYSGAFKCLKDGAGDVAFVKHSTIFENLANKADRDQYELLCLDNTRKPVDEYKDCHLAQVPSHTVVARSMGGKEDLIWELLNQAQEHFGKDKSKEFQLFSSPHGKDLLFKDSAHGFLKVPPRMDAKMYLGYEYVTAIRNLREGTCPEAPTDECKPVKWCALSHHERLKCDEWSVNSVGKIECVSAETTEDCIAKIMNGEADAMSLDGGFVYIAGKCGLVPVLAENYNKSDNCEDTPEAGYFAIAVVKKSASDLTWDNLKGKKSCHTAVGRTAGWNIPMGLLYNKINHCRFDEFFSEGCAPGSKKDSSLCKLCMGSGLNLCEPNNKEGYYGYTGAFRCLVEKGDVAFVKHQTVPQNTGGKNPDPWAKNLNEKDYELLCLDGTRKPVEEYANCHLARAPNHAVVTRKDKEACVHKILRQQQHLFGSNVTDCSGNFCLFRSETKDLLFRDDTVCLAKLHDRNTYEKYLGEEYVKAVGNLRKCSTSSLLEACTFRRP

With `O=C(O)c1cccc(CNCCNCc2cccc(C(=O)O)n2)n1` [^67Ga(dedpa)^+, metal not drawn] the “Complex stability against apo-transferrin (in words)” value (from here on “Complex stability”) (human apo-transferrin; listed as 67/68Ga(dedpa)^+) was “No decomposition was detected”, the “Complex stability” value (human apo-transferrin; listed as 67Ga(dedpa)^+) was “fully intact” and the “Complex stability” value (human apo-transferrin; listed as Ga(dedpa)^+) was “no decomposition was detected”. The “Serum stability in vitro (in words)” value [1] was “stable to transchelation by serum proteins”, the “Biodistribution, Brain, 30 min” value ([2]; Brain, 30 min after i.v. injection, mean ± SD, 4 animals) was 0.264 ± 0.132 % ID/g and the “Biodistribution, Brain, 1 h” value ([2]; Brain, 1 h after i.v. injection, mean ± SD, 4 animals) was 0.246 ± 0.123 % ID/g. For the same compound, the “Biodistribution, Brain, 2 h” value ([2]; Brain, 2 h after i.v. injection, mean ± SD, 4 animals) was 0.213 ± 0.106 % ID/g, the “Biodistribution, Brain, 4 h” value ([2]; Brain, 4 h after i.v. injection, mean ± SD, 4 animals) was 0.139 ± 0.069 % ID/g and the “Biodistribution, Femur, 30 min” value ([2]; Femur, 30 min after i.v. injection, mean ± SD, 4 animals) was 2.180 ± 1.090 % ID/g. The “Biodistribution, Femur, 1 h” value ([2]; Femur, 1 h after i.v. injection, mean ± SD, 4 animals) was 2.136 ± 1.068 % ID/g, the “Biodistribution, Femur, 2 h” value ([2]; Femur, 2 h after i.v. injection, mean ± SD, 4 animals) was 1.893 ± 0.946 % ID/g and the “Biodistribution, Femur, 4 h” value ([2]; Femur, 4 h after i.v. injection, mean ± SD, 4 animals) was 2.218 ± 1.109 % ID/g. The “Biodistribution, Heart, 30 min” value ([2]; Heart, 30 min after i.v. injection, mean ± SD, 4 animals) was 2.645 ± 1.323 % ID/g, the “Biodistribution, Heart, 1 h” value ([2]; Heart, 1 h after i.v. injection, mean ± SD, 4 animals) was 2.490 ± 1.245 % ID/g and the “Biodistribution, Heart, 2 h” value ([2]; Heart, 2 h after i.v. injection, mean ± SD, 4 animals) was 2.412 ± 1.206 % ID/g. The “Biodistribution, Heart, 4 h” value ([2]; Heart, 4 h after i.v. injection, mean ± SD, 4 animals) was 2.004 ± 1.002 % ID/g, the “Biodistribution, Intestine, 30 min” value ([2]; Intestine, 30 min after i.v. injection, mean ± SD, 4 animals) was 2.099 ± 1.050 % ID/g and the “Biodistribution, Intestine, 1 h” value ([2]; Intestine, 1 h after i.v. injection, mean ± SD, 4 animals) was 2.123 ± 1.062 % ID/g. The “Biodistribution, Intestine, 2 h” value ([2]; Intestine, 2 h after i.v. injection, mean ± SD, 4 animals) was 1.995 ± 0.998 % ID/g, the “Biodistribution, Intestine, 4 h” value ([2]; Intestine, 4 h after i.v. injection, mean ± SD, 4 animals) was 1.990 ± 0.995 % ID/g and the “Biodistribution, Kidney, 30 min” value ([2]; Kidney, 30 min after i.v. injection, mean ± SD, 4 animals) was 8.089 ± 4.009 % ID/g. For the same compound, the “Biodistribution, Kidney, 1 h” value ([2]; Kidney, 1 h after i.v. injection, mean ± SD, 4 animals) was 7.827 ± 3.914 % ID/g, the “Biodistribution, Kidney, 2 h” value ([2]; Kidney, 2 h after i.v. injection, mean ± SD, 4 animals) was 9.149 ± 4.575 % ID/g and the “Biodistribution, Kidney, 4 h” value ([2]; Kidney, 4 h after i.v. injection, mean ± SD, 4 animals) was 8.301 ± 4.150 % ID/g. For the same compound, the “Biodistribution, Liver, 30 min” value ([2]; Liver, 30 min after i.v. injection, mean ± SD, 4 animals) was 3.702 ± 1.851 % ID/g, the “Biodistribution, Liver, 1 h” value ([2]; Liver, 1 h after i.v. injection, mean ± SD, 4 animals) was 3.695 ± 1.847 % ID/g and the “Biodistribution, Liver, 2 h” value ([2]; Liver, 2 h after i.v. injection, mean ± SD, 4 animals) was 3.173 ± 1.586 % ID/g. For the same compound, the “Biodistribution, Liver, 4 h” value ([2]; Liver, 4 h after i.v. injection, mean ± SD, 4 animals) was 2.736 ± 1.368 % ID/g, the “Biodistribution, Lung, 30 min” value ([2]; Lung, 30 min after i.v. injection, mean ± SD, 4 animals) was 4.878 ± 2.439 % ID/g and the “Biodistribution, Lung, 1 h” value ([2]; Lung, 1 h after i.v. injection, mean ± SD, 4 animals) was 4.896 ± 2.448 % ID/g. For the same compound, the “Biodistribution, Lung, 2 h” value ([2]; Lung, 2 h after i.v. injection, mean ± SD, 4 animals) was 4.846 ± 2.423 % ID/g, the “Biodistribution, Lung, 4 h” value ([2]; Lung, 4 h after i.v. injection, mean ± SD, 4 animals) was 3.260 ± 1.630 % ID/g and the “Biodistribution, Muscle, 30 min” value ([2]; Muscle, 30 min after i.v. injection, mean ± SD, 4 animals) was 1.210 ± 0.605 % ID/g. For the same compound, the “Biodistribution, Muscle, 1 h” value ([2]; Muscle, 1 h after i.v. injection, mean ± SD, 4 animals) was 1.153 ± 0.576 % ID/g, the “Biodistribution, Muscle, 2 h” value ([2]; Muscle, 2 h after i.v. injection, mean ± SD, 4 animals) was 1.092 ± 0.546 % ID/g and the “Biodistribution, Muscle, 4 h” value ([2]; Muscle, 4 h after i.v. injection, mean ± SD, 4 animals) was 1.127 ± 0.564 % ID/g. The “Biodistribution, Serum, 30 min” value ([2]; Serum, 30 min after i.v. injection, mean ± SD, 4 animals) was 16.067 ± 8.033 % ID/g, the “Biodistribution, Serum, 1 h” value ([2]; Serum, 1 h after i.v. injection, mean ± SD, 4 animals) was 9.047 ± 4.524 % ID/g and the “Biodistribution, Serum, 2 h” value ([2]; Serum, 2 h after i.v. injection, mean ± SD, 4 animals) was 12.042 ± 6.021 % ID/g. For the same compound, the “Biodistribution, Serum, 4 h” value ([2]; Serum, 4 h after i.v. injection, mean ± SD, 4 animals) was 12.235 ± 6.118 % ID/g, the “Biodistribution, Spleen, 30 min” value ([2]; Spleen, 30 min after i.v. injection, mean ± SD, 4 animals) was 1.366 ± 0.683 % ID/g and the “Biodistribution, Spleen, 1 h” value ([2]; Spleen, 1 h after i.v. injection, mean ± SD, 4 animals) was 1.357 ± 0.679 % ID/g. For the same compound, the “Biodistribution, Spleen, 2 h” value ([2]; Spleen, 2 h after i.v. injection, mean ± SD, 4 animals) was 1.273 ± 0.637 % ID/g, the “Biodistribution, Spleen, 4 h” value ([2]; Spleen, 4 h after i.v. injection, mean ± SD, 4 animals) was 0.989 ± 0.495 % ID/g and the “Excretion route (in words)” value ([2]; mice, i.v.) was “excreted mainly through the kidneys”. The “Time to clearance from background tissue, such as muscle” value ([2]; mice, i.v.) was ≤ 30 min, the “Bone uptake (in words)” value ([2]; mice, i.v., indicator for complex stability) was “low uptake in bone” and the “log KML” value [3] was 28.11(8).
